Test results taken from US9828413B2, “Vancomycin derivative, and preparation method and application thereof” (ACESYS PHARMA INC., priority 2013, dated 2017).
≈ marks a conversion by molar mass, not a printed value.

Legend:
[1] = physchem; details: 25 °C, water, thermodynamic from solid
[2] = tested on: Staphylococcus aureus Newman; assay: In vitro activity assay, minimum inhibitory concentration (MIC), cup-plate method; assay type: cell-based; details: strain Newman, trypticase soy broth, read-out: MIC values, Staphylococcus aureus Newman
Description: (§1) In vitro activity assay was performed according to Microbiological Identification of Antibiotics, Appendix XIA, Volume II, Chinese Pharmacopoeia 2010. Vancomycin-sensitive Staphylococcus aureus strains (Newman and Mu 50) were selected as the test strains, and trypticase soy broth was selected as the culture medium.

[3] = tested on: Staphylococcus aureus Mu50; assay: as above; assay type: cell-based; details: strain Mu50, trypticase soy broth, read-out: MIC values, Staphylococcus aureus Mu50
Description: as §1

SMILES | solubility at 30 min [1] | MIC [2] | MIC [3]
CN[C@H](CC(C)C)C(=O)NC1C(=O)N[C@@H](CC(N)=O)C(=O)N[C@H]2C(=O)NC3C(=O)N[C@H](C(=O)N[C@@H](C(=O)O)c4cc(O)cc(O)c4-c4cc3ccc4O)[C@H](O)c3ccc(c(Cl)c3)Oc3cc2cc(c3OC2OC(CO)C(O)C(O)C2OC2CC(C)(NCC(OCc3ccccc3)C(=O)OC)C(O)C(C)O2)Oc2ccc(cc2Cl)[C@H]1O (stereo partly drawn) [Compound V9] | < 100 µg/mL | 8 µg/mL (≈ 4.87 µM) | 32 µg/mL (≈ 19.5 µM)
CN[C@H](CC(C)C)C(=O)NC1C(=O)N[C@@H](CC(N)=O)C(=O)N[C@H]2C(=O)NC3C(=O)N[C@H](C(=O)N[C@@H](C(=O)O)c4cc(O)cc(O)c4-c4cc3ccc4O)[C@H](O)c3ccc(c(Cl)c3)Oc3cc2cc(c3OC2OC(CO)C(O)C(O)C2OC2CC(C)(NCC(OCc3ccccc3)C(=O)O)C(O)C(C)O2)Oc2ccc(cc2Cl)[C@H]1O (stereo partly drawn) [Compound V11] | 50000 to 60000 µg/mL (≈ 30700 to 36900 µM) | 8 µg/mL (≈ 4.92 µM) | 32 µg/mL (≈ 19.7 µM)
CN[C@H](CC(C)C)C(=O)N[C@@H]1C(=O)NC(CC(N)=O)C(=O)NC2C(=O)NC3C(=O)N[C@H](C(=O)NC(C(=O)O)c4cc(O)cc(O)c4-c4cc3ccc4O)[C@H](O)c3ccc(c(Cl)c3)Oc3cc2cc(c3OC2OC(CO)C(O)C(O)C2OC2CC(C)(NCC(OCc3ccc(-c4ccc(Cl)cc4)cc3)C(=O)OC)C(O)C(C)O2)Oc2ccc(cc2Cl)C1O (stereo partly drawn) [Compound V13] | 50000 to 60000 µg/mL (≈ 28500 to 34200 µM) | < 0.125 µg/mL | 2 µg/mL (≈ 1.14 µM)
CN[C@H](CC(C)C)C(=O)NC1C(=O)N[C@@H](CC(N)=O)C(=O)N[C@H]2C(=O)NC3C(=O)N[C@H](C(=O)N[C@@H](C(=O)O)c4cc(O)cc(O)c4-c4cc3ccc4O)[C@H](O)c3ccc(c(Cl)c3)Oc3cc2cc(c3OC2OC(CO)C(O)C(O)C2OC2CC(C)(NCC(OCc3ccc(-c4ccc(Cl)cc4)cc3)C(=O)O)C(O)C(C)O2)Oc2ccc(cc2Cl)[C@H]1O (stereo partly drawn) [Compound V15] | ≥ 60000 µg/mL | < 0.125 µg/mL | 2 µg/mL (≈ 1.15 µM)
CCCCOC(CNC1(C)CC(OC2C(Oc3c4cc5cc3Oc3ccc(cc3Cl)[C@@H](O)[C@@H]3NC(=O)C(NC(=O)C5NC(=O)C(CC(N)=O)NC(=O)[C@@H](NC(=O)[C@@H](CC(C)C)NC)C(O)c5ccc(c(Cl)c5)O4)c4ccc(O)c(c4)-c4c(O)cc(O)cc4C(C(=O)O)NC3=O)OC(CO)C(O)C2O)OC(C)C1O)C(=O)OC (stereo partly drawn) [Compound V16] | ≥ 60000 µg/mL | 16 µg/mL (≈ 9.95 µM) | 64 µg/mL (≈ 39.8 µM)
CCCCOC(CNC1(C)CC(OC2C(Oc3c4cc5cc3Oc3ccc(cc3Cl)[C@@H](O)[C@@H]3NC(=O)C(NC(=O)[C@@H]5NC(=O)[C@H](CC(N)=O)NC(=O)C(NC(=O)[C@@H](CC(C)C)NC)[C@H](O)c5ccc(c(Cl)c5)O4)c4ccc(O)c(c4)-c4c(O)cc(O)cc4[C@H](C(=O)O)NC3=O)OC(CO)C(O)C2O)OC(C)C1O)C(=O)O (stereo partly drawn) [Compound V19] | 50000 to 60000 µg/mL (≈ 31400 to 37700 µM) | 64 µg/mL (≈ 40.2 µM) | > 128 µg/mL
CN[C@H](CC(C)C)C(=O)N[C@@H]1C(=O)NC(CC(N)=O)C(=O)NC2C(=O)NC3C(=O)N[C@H](C(=O)NC(C(=O)O)c4cc(O)cc(O)c4-c4cc3ccc4O)[C@H](O)c3ccc(c(Cl)c3)Oc3cc2cc(c3OC2OC(CO)C(O)C(O)C2OC2CC(C)(NCC(OCc3ccc(Cl)cc3)C(=O)OC)C(O)C(C)O2)Oc2ccc(cc2Cl)C1O (stereo partly drawn) [Compound V20] | < 5000 µg/mL | < 0.125 µg/mL | 2 µg/mL (≈ 1.19 µM)
CN[C@H](CC(C)C)C(=O)N[C@@H]1C(=O)NC(CC(N)=O)C(=O)NC2C(=O)NC3C(=O)N[C@H](C(=O)NC(C(=O)O)c4cc(O)cc(O)c4-c4cc3ccc4O)[C@H](O)c3ccc(c(Cl)c3)Oc3cc2cc(c3OC2OC(CO)C(O)C(O)C2OC2CC(C)(NCC(OCc3ccc(Cl)cc3)C(=O)O)C(O)C(C)O2)Oc2ccc(cc2Cl)C1O (stereo partly drawn) [Compound V21] | > 8000 µg/mL | < 0.125 µg/mL | 2 µg/mL (≈ 1.2 µM)
CN[C@H](CC(C)C)C(=O)N[C@@H]1C(=O)NC(CC(N)=O)C(=O)NC2C(=O)NC3C(=O)N[C@H](C(=O)NC(C(=O)O)c4cc(O)cc(O)c4-c4cc3ccc4O)[C@H](O)c3ccc(c(Cl)c3)Oc3cc2cc(c3OC2OC(CO)C(O)C(O)C2OC2CC(C)(NCC(OCc3ccc(C)cc3)C(=O)OC)C(O)C(C)O2)Oc2ccc(cc2Cl)C1O (stereo partly drawn) [Compound V22] | < 5000 µg/mL | 2 µg/mL (≈ 1.21 µM) | 8 µg/mL (≈ 4.83 µM)
CN[C@H](CC(C)C)C(=O)NC1C(=O)N[C@@H](CC(N)=O)C(=O)N[C@H]2C(=O)NC3C(=O)N[C@H](C(=O)N[C@@H](C(=O)O)c4cc(O)cc(O)c4-c4cc3ccc4O)[C@H](O)c3ccc(c(Cl)c3)Oc3cc2cc(c3OC2OC(CO)C(O)C(O)C2OC2CC(C)(NCC(OCc3ccc(C)cc3)C(=O)O)C(O)C(C)O2)Oc2ccc(cc2Cl)[C@H]1O (stereo partly drawn) [Compound V23] | > 8000 µg/mL | 2 µg/mL (≈ 1.22 µM) | 8 µg/mL (≈ 4.87 µM)
CN[C@H](CC(C)C)C(=O)NC1C(=O)N[C@@H](CC(N)=O)C(=O)N[C@H]2C(=O)NC3C(=O)N[C@H](C(=O)N[C@@H](C(=O)O)c4cc(O)cc(O)c4-c4cc3ccc4O)[C@H](O)c3ccc(c(Cl)c3)Oc3cc2cc(c3OC2OC(CO)C(O)C(O)C2OC2CC(C)(NCC(OCc3ccc(-c4ccccc4)cc3)C(=O)O)C(O)C(C)O2)Oc2ccc(cc2Cl)[C@H]1O (stereo partly drawn) [Compound V24] | > 10000 µg/mL | 4 µg/mL (≈ 2.35 µM) | 8 µg/mL (≈ 4.7 µM)
CN[C@H](CC(C)C)C(=O)N[C@@H]1C(=O)NC(CC(N)=O)C(=O)NC2C(=O)NC3C(=O)N[C@H](C(=O)NC(C(=O)O)c4cc(O)cc(O)c4-c4cc3ccc4O)[C@H](O)c3ccc(c(Cl)c3)Oc3cc2cc(c3OC2OC(CO)C(O)C(O)C2OC2CC(C)(NCC(OCc3ccc(-c4ccccc4)cc3)C(=O)OC)C(O)C(C)O2)Oc2ccc(cc2Cl)C1O (stereo partly drawn) [Compound V25] | < 5000 µg/mL | 4 µg/mL (≈ 2.33 µM) | 8 µg/mL (≈ 4.66 µM)
CN[C@H](CC(C)C)C(=O)N[C@@H]1C(=O)NC(CC(N)=O)C(=O)NC2C(=O)NC3C(=O)N[C@H](C(=O)NC(C(=O)O)c4cc(O)cc(O)c4-c4cc3ccc4O)[C@H](O)c3ccc(c(Cl)c3)Oc3cc2cc(c3OC2OC(CO)C(O)C(O)C2OC2CC(C)(NCC(OC)C(=O)OC)C(O)C(C)O2)Oc2ccc(cc2Cl)C1O (stereo partly drawn) [Compound V26] | 4500 µg/mL (≈ 2870 µM) | 16 µg/mL (≈ 10.2 µM) | 64 µg/mL (≈ 40.9 µM)
CN[C@H](CC(C)C)C(=O)NC1C(=O)N[C@@H](CC(N)=O)C(=O)N[C@H]2C(=O)NC3C(=O)N[C@H](C(=O)N[C@@H](C(=O)O)c4cc(O)cc(O)c4-c4cc3ccc4O)[C@H](O)c3ccc(c(Cl)c3)Oc3cc2cc(c3OC2OC(CO)C(O)C(O)C2OC2CC(C)(NCC(OC)C(=O)O)C(O)C(C)O2)Oc2ccc(cc2Cl)[C@H]1O (stereo partly drawn) [Compound V27] | 20000 µg/mL (≈ 12900 µM) | 16 µg/mL (≈ 10.3 µM) | 64 µg/mL (≈ 41.3 µM)
CCCOC(CNC1(C)CC(OC2C(Oc3c4cc5cc3Oc3ccc(cc3Cl)[C@@H](O)[C@@H]3NC(=O)C(NC(=O)[C@@H]5NC(=O)[C@H](CC(N)=O)NC(=O)C(NC(=O)[C@@H](CC(C)C)NC)[C@H](O)c5ccc(c(Cl)c5)O4)c4ccc(O)c(c4)-c4c(O)cc(O)cc4[C@H](C(=O)O)NC3=O)OC(CO)C(O)C2O)OC(C)C1O)C(=O)O (stereo partly drawn) [Compound V30] | 4000 µg/mL (≈ 2530 µM) | 4 µg/mL (≈ 2.53 µM) | 16 µg/mL (≈ 10.1 µM)
CCCCCCOC(CNC1(C)CC(OC2C(Oc3c4cc5cc3Oc3ccc(cc3Cl)[C@@H](O)[C@@H]3NC(=O)C(NC(=O)C5NC(=O)C(CC(N)=O)NC(=O)[C@@H](NC(=O)[C@@H](CC(C)C)NC)C(O)c5ccc(c(Cl)c5)O4)c4ccc(O)c(c4)-c4c(O)cc(O)cc4C(C(=O)O)NC3=O)OC(CO)C(O)C2O)OC(C)C1O)C(=O)OC (stereo partly drawn) [Compound V31] | < 1000 µg/mL | 2 µg/mL (≈ 1.22 µM) | 8 µg/mL (≈ 4.89 µM)
